Assay results published in article PMC6437697 (Journal of Medicinal Chemistry, 2019).

What was measured:
Test in all cases: KINOMEscan
Assay type in all cases: binding
Settings in all cases: read-out: % control activity remaining
[1] = biological target: T1, ABL1(E255K)-phosphorylated (Homo sapiens, UniProt P00519, E255K)
T1 construct: purchased Eurofins DiscoverX KINOMEscan

[2] = biological target: T2, TYRO3 (Homo sapiens, UniProt Q06418)
T2 construct: purchased Eurofins DiscoverX KINOMEscan
T2 sequence (Q06418 41-890): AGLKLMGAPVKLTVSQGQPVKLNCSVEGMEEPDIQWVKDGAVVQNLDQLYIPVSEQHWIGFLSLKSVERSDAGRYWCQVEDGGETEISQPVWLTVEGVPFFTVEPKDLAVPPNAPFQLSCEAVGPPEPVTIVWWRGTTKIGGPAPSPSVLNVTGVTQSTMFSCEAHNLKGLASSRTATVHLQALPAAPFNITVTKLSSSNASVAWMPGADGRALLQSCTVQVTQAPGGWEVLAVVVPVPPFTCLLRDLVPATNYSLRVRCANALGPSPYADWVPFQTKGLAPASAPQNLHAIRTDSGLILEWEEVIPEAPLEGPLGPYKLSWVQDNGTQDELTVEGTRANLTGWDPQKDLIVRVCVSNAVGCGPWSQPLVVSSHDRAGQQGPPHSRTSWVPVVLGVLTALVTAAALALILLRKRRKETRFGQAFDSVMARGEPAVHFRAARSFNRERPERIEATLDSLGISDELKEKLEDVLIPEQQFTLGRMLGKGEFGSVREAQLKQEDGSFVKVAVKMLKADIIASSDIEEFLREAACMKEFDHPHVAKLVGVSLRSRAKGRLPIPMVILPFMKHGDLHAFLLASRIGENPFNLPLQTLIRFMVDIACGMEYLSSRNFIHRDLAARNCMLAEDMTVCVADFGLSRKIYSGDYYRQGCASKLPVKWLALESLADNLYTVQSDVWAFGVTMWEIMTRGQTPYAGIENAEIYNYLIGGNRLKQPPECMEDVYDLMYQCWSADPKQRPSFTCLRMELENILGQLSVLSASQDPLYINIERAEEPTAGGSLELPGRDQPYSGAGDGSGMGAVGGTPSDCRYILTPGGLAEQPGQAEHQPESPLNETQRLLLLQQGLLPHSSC

[3] = biological target: T3, NEK10 (Homo sapiens, UniProt Q6ZWH5)
T3 construct: purchased Eurofins DiscoverX KINOMEscan
T3 sequence (Q6ZWH5 1-1172): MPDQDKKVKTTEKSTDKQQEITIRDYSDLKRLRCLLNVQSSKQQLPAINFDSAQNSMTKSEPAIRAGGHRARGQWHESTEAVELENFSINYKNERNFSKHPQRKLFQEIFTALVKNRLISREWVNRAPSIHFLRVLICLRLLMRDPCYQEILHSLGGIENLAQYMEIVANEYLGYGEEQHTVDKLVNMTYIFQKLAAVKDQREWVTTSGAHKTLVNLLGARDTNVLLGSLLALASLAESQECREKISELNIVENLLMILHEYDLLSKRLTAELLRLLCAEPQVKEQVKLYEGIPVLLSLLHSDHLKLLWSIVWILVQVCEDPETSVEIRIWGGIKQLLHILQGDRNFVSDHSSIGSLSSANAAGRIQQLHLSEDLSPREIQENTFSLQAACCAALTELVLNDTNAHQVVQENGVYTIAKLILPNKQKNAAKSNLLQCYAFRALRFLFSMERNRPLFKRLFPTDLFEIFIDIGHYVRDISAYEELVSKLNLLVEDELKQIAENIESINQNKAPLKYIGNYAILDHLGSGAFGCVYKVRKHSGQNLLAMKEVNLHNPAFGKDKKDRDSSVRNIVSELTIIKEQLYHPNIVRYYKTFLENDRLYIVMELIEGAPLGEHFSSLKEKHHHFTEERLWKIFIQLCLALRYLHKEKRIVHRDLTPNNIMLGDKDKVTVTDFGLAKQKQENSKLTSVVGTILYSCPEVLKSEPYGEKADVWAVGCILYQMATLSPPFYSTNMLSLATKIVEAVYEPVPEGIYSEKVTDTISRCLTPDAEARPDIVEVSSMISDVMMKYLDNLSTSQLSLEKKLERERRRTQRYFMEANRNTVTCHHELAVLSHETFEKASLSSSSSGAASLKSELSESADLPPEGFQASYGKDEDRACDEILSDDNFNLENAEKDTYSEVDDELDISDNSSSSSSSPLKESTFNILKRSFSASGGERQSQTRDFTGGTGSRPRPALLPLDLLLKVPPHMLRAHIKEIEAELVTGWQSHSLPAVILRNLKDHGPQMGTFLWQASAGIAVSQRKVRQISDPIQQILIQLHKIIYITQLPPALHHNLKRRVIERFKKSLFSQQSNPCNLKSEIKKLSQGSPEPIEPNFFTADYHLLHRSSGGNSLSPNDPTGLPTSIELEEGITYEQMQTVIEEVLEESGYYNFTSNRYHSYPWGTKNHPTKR

[4] = biological target: T4, LZK (Homo sapiens, UniProt O43283)
T4 construct: purchased Eurofins DiscoverX KINOMEscan
T4 sequence (O43283 1-966): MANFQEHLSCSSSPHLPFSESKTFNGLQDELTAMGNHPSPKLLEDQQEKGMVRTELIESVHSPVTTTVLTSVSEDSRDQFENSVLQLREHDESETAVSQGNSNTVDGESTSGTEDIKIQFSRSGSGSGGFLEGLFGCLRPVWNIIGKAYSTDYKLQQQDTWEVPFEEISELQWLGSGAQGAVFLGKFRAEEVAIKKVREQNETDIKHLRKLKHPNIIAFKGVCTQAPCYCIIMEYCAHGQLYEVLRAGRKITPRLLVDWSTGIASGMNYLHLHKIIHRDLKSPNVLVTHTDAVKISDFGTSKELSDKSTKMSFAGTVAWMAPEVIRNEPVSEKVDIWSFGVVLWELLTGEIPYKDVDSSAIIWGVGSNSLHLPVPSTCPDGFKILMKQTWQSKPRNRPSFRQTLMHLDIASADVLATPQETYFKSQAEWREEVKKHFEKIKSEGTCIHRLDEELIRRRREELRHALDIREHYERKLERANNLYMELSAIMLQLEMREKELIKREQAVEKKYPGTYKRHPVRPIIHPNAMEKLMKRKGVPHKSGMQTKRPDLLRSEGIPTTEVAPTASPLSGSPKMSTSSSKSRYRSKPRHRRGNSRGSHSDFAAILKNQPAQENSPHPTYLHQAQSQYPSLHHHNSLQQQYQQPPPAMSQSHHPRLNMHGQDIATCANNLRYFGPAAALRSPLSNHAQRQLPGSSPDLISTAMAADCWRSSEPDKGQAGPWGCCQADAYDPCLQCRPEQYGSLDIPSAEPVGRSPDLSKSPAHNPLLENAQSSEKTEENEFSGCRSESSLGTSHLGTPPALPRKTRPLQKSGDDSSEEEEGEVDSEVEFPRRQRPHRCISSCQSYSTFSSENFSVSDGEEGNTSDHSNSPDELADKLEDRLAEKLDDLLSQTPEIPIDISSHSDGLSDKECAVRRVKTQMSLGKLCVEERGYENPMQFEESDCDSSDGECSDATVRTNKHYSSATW

T1 sequence (P00519 whole entry E255K): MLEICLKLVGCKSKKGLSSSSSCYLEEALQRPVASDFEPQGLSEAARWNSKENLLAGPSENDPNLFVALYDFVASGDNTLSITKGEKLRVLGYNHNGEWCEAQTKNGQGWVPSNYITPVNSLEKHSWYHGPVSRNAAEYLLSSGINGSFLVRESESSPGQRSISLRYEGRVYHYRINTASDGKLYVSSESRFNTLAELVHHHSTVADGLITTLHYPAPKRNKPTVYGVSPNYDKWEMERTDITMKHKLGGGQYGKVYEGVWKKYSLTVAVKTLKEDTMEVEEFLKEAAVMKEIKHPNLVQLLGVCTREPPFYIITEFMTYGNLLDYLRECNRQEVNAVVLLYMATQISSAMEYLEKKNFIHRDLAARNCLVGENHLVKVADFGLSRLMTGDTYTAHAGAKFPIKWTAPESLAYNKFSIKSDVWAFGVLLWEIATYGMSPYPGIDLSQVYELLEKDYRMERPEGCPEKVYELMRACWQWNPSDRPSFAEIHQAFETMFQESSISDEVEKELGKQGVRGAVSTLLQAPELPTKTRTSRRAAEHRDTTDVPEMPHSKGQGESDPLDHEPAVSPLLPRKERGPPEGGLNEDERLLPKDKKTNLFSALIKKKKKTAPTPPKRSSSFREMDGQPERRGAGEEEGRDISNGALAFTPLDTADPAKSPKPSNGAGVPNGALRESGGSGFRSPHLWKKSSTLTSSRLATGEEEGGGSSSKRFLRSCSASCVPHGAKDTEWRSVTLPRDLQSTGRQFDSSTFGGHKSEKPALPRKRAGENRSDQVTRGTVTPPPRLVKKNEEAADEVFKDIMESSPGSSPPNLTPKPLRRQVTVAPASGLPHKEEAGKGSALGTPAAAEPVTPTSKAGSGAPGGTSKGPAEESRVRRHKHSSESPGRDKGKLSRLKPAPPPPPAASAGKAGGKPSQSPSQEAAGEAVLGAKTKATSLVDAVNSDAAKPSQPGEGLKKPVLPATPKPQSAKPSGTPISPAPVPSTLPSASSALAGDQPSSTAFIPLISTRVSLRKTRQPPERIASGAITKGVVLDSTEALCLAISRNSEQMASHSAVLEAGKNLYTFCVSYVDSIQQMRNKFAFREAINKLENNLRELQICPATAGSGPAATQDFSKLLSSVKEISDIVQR

Clc1cc(NCC2CC2)c2ncc(-c3ccc4[nH]ncc4c3)n2n1 [compound 2, 6-Chloro-N-(cyclopropylmethyl)-3-(1H-indazol-5-yl)imidazo[1,2-b]pyridazin-8-amine]
remaining binding at 1 µM [1]: 100%
remaining binding at 1 µM [2]: 69%
remaining binding at 1 µM [3]: 92%
remaining binding at 1 µM [4]: 100%

O=C(CN1CCOCC1)N[C@H]1CC[C@H](Nc2cc(Cl)nn3c(-c4ccc5[nH]ncc5c4)cnc23)CC1 [compound 26]
remaining binding at 1 µM [1]: 56%
remaining binding at 1 µM [2]: 86%
remaining binding at 1 µM [3]: 72%
remaining binding at 1 µM [4]: 100%

CN1CCC(CNc2cc(Cl)nn3c(-c4cc5nc(Nc6ccccc6)[nH]c5cc4F)cnc23)CC1 [compound 31, 6-Chloro-3-(6-fluoro-2-(phenylamino)-1H-benzo[d]imidazol-5-yl)-N-((1-methylpiperidin-4-yl)methyl)imidazo[1,2-b]pyridazin-8-amine]
remaining binding at 1 µM [1]: 86%
remaining binding at 1 µM [2]: 99%
remaining binding at 1 µM [3]: 100%
remaining binding at 1 µM [4]: 98%
